Test results published in patent publication US20240335431A1, “1-H-PYRROLO[2,3-c]PYRIDINE COMPOUNDS” (Acerta Pharma B.V., priority 2023, published 2024).
Where two headings read alike, the source gives them in different places.

Experiments:
[1] = tested on: MOLM-13 cells; assay: Proliferation assay, MOLM-13 (CellTiter-Glo, 7 days); type: cell-based, human
Method: (§1) The anti-proliferative effect of compounds was tested in human leukaemia cell lines. The cell lines […] and MV4; 11 each harbor an MLL translocation expressing the MLL fusion proteins MLL-AF9 and MLL-AF4, respectively. Each also express the wildtype protein from the second allele. OCI-AML3 cells carrying the NPM1c gene mutation were also tested.
(§2) MOLM-13 and HEL cells were cultured in RPMI 1640 (Gibco) supplemented with 10% FBS (Gibco) and 1% Pen/Strep (Gibco). MV4; 11 cells were cultured in IMDM (Gibco) supplemented with 10% FBS (Gibco) and 1% Pen/Strep (Gibco). OCI-AML3 cells were cultured in MEMa (Gibco) supplemented with 20% FBS (Gibco) and 1% Pen/Strep (Gibco).
(§3) To assess proliferative effects, 125 MOLM-13 cells, 300 MV4; 11 cells, 75 OCI-AML3 cells, and 200 HEL cells were seeded in 40 μL media per well in 384-well ViewPlates (Perkin Elmer, 6007480). Cell seeding numbers were chosen based on growth curves to ensure linear growth throughout the experiments. Test compounds were added at 3.16-fold serial dilutions in DMSO from […] and DMSO content was normalized to 0.1%. Cells were incubated for 7 days at 37° C. and 5% CO2. A day 0 plate was seeded for each cell line and used as a standard control.
(§4) To measure cell viability, CellTiter-Glo 2.0 (Promega, G9242) luminescent growth indicator was used. 10 μL CellTiter-Glo reagent was added per well. Plates were placed on a plate shaker for 2 minutes in the dark and left to incubate off the shaker for another 8 minutes in the dark, for a total of 10 minutes. Plates were read using an EnVision plate reader (Perkin Elmer) using the Luminescence aperture and a measurement time of 0.1 second.
(§5) Data were analyzed in Genedata Screener®. IC50 values were determined by plotting % inhibition versus log compound concentration and using a one site dose response model. Raw data signals were normalized using 0.1% DMSO media only as background control, 0.1% DMSO with cells no compound as 100% viability (maximum signal), and day 0 0.1% DM with cells no compound as 0% viability (minimum signal).

[2] = molecular target: hERG (Homo sapiens (Human), UniProt Q12809); assay: hERG assay 1 (standard), SyncroPatch 384PE; type: cell-based; settings: CHO cells, room temperature, up to 40 uM
hERG, sequence (Q12809 whole entry): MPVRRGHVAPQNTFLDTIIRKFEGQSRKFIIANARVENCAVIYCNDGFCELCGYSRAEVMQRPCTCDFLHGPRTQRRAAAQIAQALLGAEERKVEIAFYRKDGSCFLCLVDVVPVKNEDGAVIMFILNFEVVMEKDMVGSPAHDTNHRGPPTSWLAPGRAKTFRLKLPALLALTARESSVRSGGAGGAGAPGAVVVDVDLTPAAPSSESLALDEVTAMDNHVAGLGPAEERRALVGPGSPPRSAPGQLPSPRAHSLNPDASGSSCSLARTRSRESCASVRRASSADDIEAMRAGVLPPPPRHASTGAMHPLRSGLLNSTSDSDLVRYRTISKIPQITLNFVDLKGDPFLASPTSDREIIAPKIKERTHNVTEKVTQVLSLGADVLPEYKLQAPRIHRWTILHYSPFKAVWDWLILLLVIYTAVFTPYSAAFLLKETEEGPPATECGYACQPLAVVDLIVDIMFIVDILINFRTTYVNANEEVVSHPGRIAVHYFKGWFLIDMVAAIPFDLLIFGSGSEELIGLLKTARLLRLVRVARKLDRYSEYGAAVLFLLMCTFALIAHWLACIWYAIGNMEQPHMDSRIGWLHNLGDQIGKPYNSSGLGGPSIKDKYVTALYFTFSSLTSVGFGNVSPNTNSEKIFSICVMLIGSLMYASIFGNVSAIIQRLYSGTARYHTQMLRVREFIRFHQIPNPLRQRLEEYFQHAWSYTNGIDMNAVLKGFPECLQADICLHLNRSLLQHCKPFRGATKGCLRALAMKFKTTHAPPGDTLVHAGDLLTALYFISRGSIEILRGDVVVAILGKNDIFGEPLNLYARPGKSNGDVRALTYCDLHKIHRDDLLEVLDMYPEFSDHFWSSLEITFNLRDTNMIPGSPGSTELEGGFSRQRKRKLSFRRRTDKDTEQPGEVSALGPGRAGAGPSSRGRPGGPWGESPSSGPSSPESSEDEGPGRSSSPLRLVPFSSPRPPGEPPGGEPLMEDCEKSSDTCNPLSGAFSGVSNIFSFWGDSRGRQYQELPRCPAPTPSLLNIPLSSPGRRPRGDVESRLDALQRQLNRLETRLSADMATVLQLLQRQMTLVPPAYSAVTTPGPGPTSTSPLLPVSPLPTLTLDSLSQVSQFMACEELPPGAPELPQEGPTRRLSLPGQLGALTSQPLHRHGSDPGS
Method: Experiments were performed on the SyncroPatch 384PE (Nanion Technologies) high throughput patch clamp platform at room temperature and used medium resistance chips with 4 patch holes per site. hERG-expressing Chinese hamster ovary K1 (CHO) cell line was used in assay-ready format and kept in liquid nitrogen until use. 2 vials of cells (10×10^6 cells per vial) were thawed and added to 20 ml Hepes-buffered saline solution (HBSS). HBSS comprised 140 mM NaCl, 4 mM KCl, 10 mM HEPES and 5 mM Glucose (pH 7.4). The internal patch clamp solution was KF 120 mM, KCl 20 mM, HEPES 10 mM, EGTA 10 mM, and 25 μM Escin (pH 7.2). After the initial sealing process was complete, a seal enhancer solution comprising HBSS supplemented with 10 mM CaCl2 and 1 mM MgCl2 was applied to cells. The external solution was then exchanged (4 times) for external patch clamp solution comprising NaCl 80 mM, KCl 4 mM, HEPES 10 mM, CaCl2 2 mM, MgCl2 1 mM, glucose 5 mM, and NMDG 60 mM (pH7.4). All compounds were dispensed from initial 10 mM DMSO stocks. An industry standard +60/−40 mV voltage protocol was applied every 15 seconds. Compounds were tested in a 6-point cumulative assay (final DMSO concentration 0.33%), with a concentration range of 139 nM to 40 uM. Data were analyzed in Genedata Screener®. IC50 values were determined by plotting % inhibition versus log compound concentration and using a one site dose response model. Only wells that passed acceptance criteria for this platform were used in this analysis (30 MegaOhm seal resistance, Z prime >0.4 and current size >0.2 nA).

[3] = Human liver microsomes (HLMs) intrinsic clearance assay; type: in vitro ADME
Method: Human liver microsomes (HLMs) were obtained from Corning (UltraPool 150 donors) at a concentration of 20 mg/mL protein. HLMs were stored at −80° C. until use and prior to use, thawed in a 37° C. water bath and then stored on wet ice. DMSO and NADPH were sourced from Solarbio S&T Co Ltd.
2 mL of 10 mM DMSO stock solutions of test compound were added to 198 mL acetonitrile to produce […] concentration. 1325 mL of 20 mg/mL HLM were added to 22260 mL of phosphate buffer to produce the HLM mixture. An 8.334 mg/mL solution of NADPH was prepared in 100 mmol/L pH 7.4 phosphate buffer.
222.5 mL of the HLM mixture and 25 mL of the 10 mM NADPH were added into the incubation plates (1 mL 96 well deep well plate from Thermo). The mixture was vortexed for 10 seconds at 1000 rpm. The incubation plate was pre-warmed in a water bath at 37° C. for 8 minutes. 2.5 mL of the […] stocks of test compound was added to initiate the reaction. The mix was vortexed for 12 seconds at 1000 rpm and incubated at 37° C. The incubation mixture (250 mL) contained 1 mg/mL HLM, 1 mmol/L NADPH and […].
The reaction was quenched by transferring 20 mL of the incubation mixture at 0.5, 5, 10, 15, 20 and 30 minutes into the quenching plate containing 100 mL of cold stop solution (acetonitrile containing internal standards). The plate was vortexed at 800 rpm for 2 minutes.
The quenching plates were centrifuged for 20 minutes at 4000 rpm and 4° C. 40 mL of the supernatant was transferred into a 96-well analysis plate containing 160 mL of water. The analysis plate was shaken at 1000 rpm for 2 minutes and the samples analysed by LC-MS/MS.
Peak areas were determined from extracted ion chromatograms. Percent parent remaining was calculated from peak area of test compound. The slope value, k, was determined by linear regression of the natural logarithm of percent parent remaining versus incubation time. The in vitro half-life (t1/2) was determined from the slope value by the equation: […]
Conversion of the in vitro half-life (min) into in vitro CLint (mL/min/mg proteins) was completed using the equation: […]

[4] = molecular target: Menin protein (Homo sapiens, UniProt O00255, DEL460-519); assay: Menin/MLL fluorescence polarization (FP) assay; type: binding; settings: Menin 2 nM, cRho110-Ahx-MBM1/MBM2 peptide 1 nM
Menin protein, sequence (O00255 with tags, fused parts or gaps DEL460-519): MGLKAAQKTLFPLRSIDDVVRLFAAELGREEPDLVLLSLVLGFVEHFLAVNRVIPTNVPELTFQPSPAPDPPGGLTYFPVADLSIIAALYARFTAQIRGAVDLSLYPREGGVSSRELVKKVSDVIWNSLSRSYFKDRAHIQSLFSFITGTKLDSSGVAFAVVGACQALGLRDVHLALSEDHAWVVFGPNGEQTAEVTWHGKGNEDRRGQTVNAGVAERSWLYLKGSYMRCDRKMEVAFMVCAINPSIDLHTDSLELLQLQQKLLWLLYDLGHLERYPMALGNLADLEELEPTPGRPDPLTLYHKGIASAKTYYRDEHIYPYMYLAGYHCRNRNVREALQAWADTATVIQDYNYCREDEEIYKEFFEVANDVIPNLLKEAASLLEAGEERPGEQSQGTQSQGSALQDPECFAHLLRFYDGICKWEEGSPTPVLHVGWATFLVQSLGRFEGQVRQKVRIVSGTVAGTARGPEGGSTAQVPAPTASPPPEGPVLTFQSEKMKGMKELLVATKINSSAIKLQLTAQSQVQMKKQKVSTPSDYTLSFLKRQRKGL
Method: Compounds were tested in a biochemical binding assay using Menin protein at 2 nM (N6his-tev-Menin_4i80, PB-20-1459) and the substrate cRho110-Ahx-MBM1/MBM2 peptide (UbiQ, UbiQ-Q20201030; cRh110-Ahx-[…]-QRVPALLLPPG-NH2) at 1 nM.
384 Low volume black plates (Corning #4514) were used. 5 μL/well compound or 3% DMSO was added at 10-fold serial dilutions in DMSO from 10 μM. 5 μL/well cRho110-Ahx-MBM1/MBM2 peptide or binding buffer (50 mM Tris pH 7.5, 50 mM NaCl, 1 mM TCEP, 0.01% BGG, 0.01% Brij-35) was added to all wells. 5 μL/well Menin protein or binding buffer (50 mM Tris pH 7.5, 50 mM NaCl, 1 mM TCEP, 0.01% BGG, 0.01% Brij-35) was added to all wells. Plates were read on an EnVision plate reader (Perkin Elmer) with excitation at 480 nm and emission at 535 nm P+S, and measured every 5 minutes for 180 minutes.
Data were analyzed in Genedata Screener®. IC50 values were determined by plotting % inhibition versus log compound concentration and using a one site dose response model. Raw data signals were normalized using 1% DMSO no Menin as 100% inhibitor control and 1% DMSO with Menin and no inhibitor as 0% inhibitor control.

[5] = tested on: HEL cells; assay: Proliferation assay, HEL control cell line (CellTiter-Glo, 7 days); type: cell-based, human
Method: as §1, §2, §3, §4, §5

[6] = Human hepatocyte intrinsic clearance assay; type: in vitro ADME; settings: human hepatocytes
Method: Human hepatocytes (LiverPool™ 10-Donor Human hepatocytes (Mixed Gender, PEG-free, Product No. S01205, 5 million cells per vial) were obtained from BioreclamationIVT. DMSO was sourced from Solarbio S&T Co Ltd. Leibovitz's L-15 Medium, Williams' Medium E, GlutaMAX™-1 (100×), HEPES, DPBS (10×) and Human Recombinant Insulin Solution were purchased from Gibco. Isotonic Percoll Solution was purchased from GE Healthcare. Fetal Bovine Serum (FBS) was purchased from Corning.
10 mM dexamethasone stock solution was prepared by dissolving 3.9 mg dexamethasone in 1 mL of DMSO. An Isotonic Percoll Solution was prepared by dilution of Percoll with DPBS (10×). 15 mL of Isotonic Percoll Solution (90% Percoll/10% DPBS) was added to 31.25 mL William's E medium containing 500 mL of GlutaMAX™-1 (100×), 750 mL of 1M HEPES, 2.5 mL of 5% FBS, 50 mL of 4 mg/mL Human Recombinant Insulin Solution and 5 mL of the 10 mM dexamethasone stock.
2 mL of 10 mM DMSO stock solutions of test compound were added to 198 mL acetonitrile to produce 100 mmol/L concentration.
The human hepatocyte vial was thawed at 37° C. in a waterbath. Once thawed, contents were poured into a 50 mL conical tube and centrifuged at 100 g for 10 minutes. The thawing medium was poured out and 4 mL L-15 medium was added. The tube was gently shaken to resuspend the hepatocytes and cells were counted with an appropriate cell counter. 247.5 mL of the hepatocyte suspension was transferred into each well of the plate and pre-warmed at 600 rpm and 50° C. to enable the temperature to rise to 37° C.
2.5 mL of the […] test compound solution was added to initiate the reaction (final concentration […]) and incubated at 37° C. with shaking at 900 rpm. At 0.5, 5, 15, 30, 45, 60, 80, 100 and 120 minutes, 20 mL was taken into a quenching solution of acetonitrile containing internal standards. The mix was vortexed at 800 rpm for 2 minutes followed by centrifugation for 20 minutes at 4000 rpm at 4° C. 40 mL of supernatant was transferred into a 96 well analysis plate containing 160 mL of water in each well. The analysis plate was shaken at 100 rpm for 2 minutes prior to analysis by LC-MS/MS.
Peak areas were determined from extracted ion chromatograms. Percent parent remaining was calculated from peak area of test compound. The slope value, k, was determined by linear regression of the natural logarithm of percent parent remaining versus incubation time.
The in vitro intrinsic clearance (in vitro CLint in mL/min/10^6 cells) was determined from the slope value using the following equation: […]
where V is the incubation volume (0.25 mL) and N is the number of hepatocytes per well (0.25×10^6 cells).

[7] = human, microsomes, 1 µM, pH 7.4

| SMILES | IC50 [1] [µM] | IC50 [2] [µM] | HLM CLint [3, 7] [µL/min/mg] | IC50 [4] [µM] | IC50 [5] [µM] | HH CLint [6] [μl/min/1E6] | HLM CLint ([3]; 1 mg/mL HLM, NADPH) [µL/min/mg] | IC50 ([1]; Homo sapiens, MOLM-13, 168 h) [µM] | microsomal CLint at 1 µM ([3]; human, microsomes, pH 7.4, HLM CLint) [µL/min/mg] | IC50 ([5]; Homo sapiens, HEL, 168 h) [µM] |
| --- | --- | --- | --- | --- | --- | --- | --- | --- | --- | --- |
| Cc1c(C(=O)C2CCN(C(=O)[C@H]3NC[C@@H]4C[C@@H]43)CC2)c2ccncc2n1-c1ccc(F)cc1C(=O)N(C(C)C)[C@H](C)C(F)(F)F (single isomer, unassigned) [Example 57-2] | > 10 | > 40 | 95 | > 10 | > 10 |  |  |  |  |  |
| CCN(C(=O)c1cc(F)ccc1-n1c(C)c(C(=O)[C@@H]2CCN(C(=O)[C@@H]3CCC4(CC4)N3)[C@@H](C)C2)c2ccncc21)C(C)C (single isomer, unassigned) [Example 52-4, N-Ethyl-5-fluoro-N-isopropyl-2-(2-methyl-3-((2R*,4S*)-2-methyl-1-((S)-4-azaspiro[2.4]heptane-5-carbonyl)piperidine-4-carbonyl)-1H-pyrrolo[2,3-c]pyridin-1-yl)benzamide] | 1.09 |  |  | 2.47 | > 10 | 7.9 | >300 |  |  |  |
| [2H]C([2H])([2H])C([2H])(N(C(=O)c1cc(F)ccc1-n1c(C)c(C(=O)C2CCN(C(=O)[C@@H]3CCC(C)(C)N3)CC2)c2ccncc21)C([2H])(C([2H])([2H])[2H])C([2H])([2H])[2H])C([2H])([2H])[2H] [Example 59, (S)-2-(3-(1-(5,5-Dimethylpyrrolidine-2-carbonyl)piperidine-4-carbonyl)-2-methyl-1H-pyrrolo[2,3-c]pyridin-1-yl)-5-fluoro-N,N-bis(propan-2-yl-d7)benzamide] |  | > 40 |  | 0.102 |  |  |  | 0.094 | 59 | > 10 |
| CCN(C(=O)c1cc(F)ccc1-n1c(C)c(C(=O)[C@@H]2CCN(C(=O)[C@@H]3CCC4(CC4)N3)[C@@H](C)C2)c2ccncc21)C(C)C (single isomer, unassigned) [Example 52-3, N-Ethyl-5-fluoro-N-isopropyl-2-(2-methyl-3-((2R*,4S*)-2-methyl-1-((S)-4-azaspiro[2.4]heptane-5-carbonyl)piperidine-4-carbonyl)-1H-pyrrolo[2,3-c]pyridin-1-yl)benzamide] | 1.47 |  |  | 5.95 | > 10 | 5.7 | 210 |  |  |  |
| Cc1c(C(=O)[C@@H]2CCN(C(=O)[C@H]3NC[C@@H]4C[C@@H]43)[C@@H](C)C2)c2ccncc2n1-c1ccc(F)cc1C(=O)N(CC(F)(F)F)C(C)C (single isomer, unassigned) [Example 53-2, 2-(3-((2R*,4S*)-1-((1S,2S,5R)-3-Azabicyclo[3.1.0]hexane-2-carbonyl)-2-methylpiperidine-4-carbonyl)-2-methyl-1H-pyrrolo[2,3-c]pyridin-1-yl)-5-fluoro-N-isopropyl-N-(2,2,2-trifluoroethyl)benzamide] | 1.3 |  | 77 | 7.8 | > 10 |  |  |  |  |  |
